Laboratory results: patent US11707442B2, “Antibacterial and antifungal compounds” (The General Hospital Corporation, priority 2015, dated 2023)
≈ marks a conversion by molar mass, not a printed value. Entries after “also recorded” stand apart in the source; their conditions may differ. Where two headings read alike, the source gives them in different places.

Assays:
[1] = system: A. baumannii; experiment: MIC, broth microdilution; assay type: cell-based, Acinetobacter baumannii; details: Acinetobacter baumannii, ATCC17978; A. baumannii ATCC 17978; read-out: Minimum inhibitory concentration
Text: (§1) Bacterial strains and growth conditions and persister isolation: methicillin-resistant S. aureus (MRSA) strain MW2 BAA-1707, vancomycin-resistant S. aureus strain VRS 1, 11 clinical S. aureus isolates, 8 clinical Enterococcus faecium isolates, Klebsiella pneumoniae WGLW2 (BEI Resources, Manassas, Va., USA), Acinetobacter baumannii ATCC 17978, Pseudomonas aeruginosa PA14, and Enterobacter aerogenes ATCC 13048 were used to test antimicrobial activity (See Table 1a). S. aureus and E. faecium strains were grown in tryptic soy broth (TSB) (BD, Franklin Lakes, N.J., USA) or brain-heart infusion (BHI) broth (BD, Franklin Lakes, N.J., USA), respectively at 37° C. at 225 rpm. K. pneumoniae, A. baumannii, P. aeruginosa, and E. aerogenes were grown in Luria Bertani (LB) broth (BD, Franklin Lakes, N.J., USA).
(§2) To test the bacterial MICs for compounds described herein, the total volume in each well was 100 μl of test compounds and bacterial cells in MH broth. […] The bacterial concentration was adjusted to an initial OD600 of 0.03. After incubation at 35° C. for 18 hrs, the absorbance was measured at 595 nm in accordance with CLSI document M07-A8. The MICs of antibiotics were determined by the standard microdilution method recommended by the Clinical and Laboratory Standards Institute.

[2] = system: E. faecium; experiment: MIC, broth microdilution; assay type: cell-based, Enterococcus faecium; details: for MIC: Enterococcus faecium
Text: as §1, §2

[3] = system: S. aureus; experiment: Minimal inhibitory concentration (MIC), broth microdilution; assay type: cell-based, Staphylococcus aureus; details: for MIC: Staphylococcus aureus
Text: as §1, §2

[4] = system: K. pneumonia WGLW2; experiment: MIC, broth microdilution; assay type: cell-based, Klebsiella pneumoniae; details: Klebsiella pneumoniae; K. pneumonia WGLW2; read-out: Minimum inhibitory concentration
Text: as §1, §2

[5] = system: P. aeruginosa; experiment: MIC, broth microdilution; assay type: cell-based, Pseudomonas aeruginosa; details: Pseudomonas aeruginosa; P. aeruginosa PA14; read-out: Minimum inhibitory concentration
Text: as §1, §2

[6] = system: E. aerogenes ATCC 13048; experiment: MIC, broth microdilution; assay type: cell-based, Enterobacter aerogenes; details: Klebsiella aerogenes, ATCC13048; E. aerogenes ATCC 13048; read-out: Minimum inhibitory concentration
Text: as §1, §2

[7] = system: C. elegans infected with MRSA strain MW2; assay type: in vivo; details: result in words
Method: The C. elegans-MRSA liquid infection assay has been described (Rajamuthiah et al. Plos One. 2014; 9(2):e89189). In brief, 4,500 glp-4 (bn2); sek-1(km4) L1 hatchlings were grown on SK-HB101 agar plates for 52 hours at the restrictive temperature of 25° C. until animals became sterile young adults and later harvested with M9 buffer. S. aureus MW2 was grown overnight at 37° C. in TSB, first under aerobic conditions and later shifted to anaerobic growth conditions at 37° C. The infection assay was performed in standard 384-well assay plates, in the presence of the compound being tested or 1% dimethyl sulfoxide (DMSO) as a control. Bacteria were added to the wells at a final OD600 of 0.06, followed by the use of a Complex Object Parametric Analyzer and Sorter (COPAS) large particle sorter (Union Biometrica, Holliston, Mass., USA) to transfer 15 adult worms to each well of an assay plate. After 5 days of incubation in a humidified chamber at 25° C., the bacteria and other debris were washed from the wells with a microplate washer and the worms were stained with the vital dye Sytox Orange (Life Technologies). After overnight incubation at 25° C. in a humidified chamber, the plates were imaged using an Image Xpress Micro automated microscope (Molecular Devices, Sunnyvale, Calif., USA), capturing both transmitted light and TRITC (535 nm excitation, 610 nm emission) fluorescent images with a 2× objective. The images from the infection assay were processed using the open source image analysis software CellProfiler and analysis modules as described previously. The ratio of Sytox worm area to bright field worm area, and the resultant percentage survival data, is calculated by the software for each well of the assay plates. The assay was performed in triplicate comparing the survival of worms at various concentrations of drugs.
Killing assays were carried out as described in Methods using S. aureus MRSA MW2 and 10 μg/ml retinoids, 10 μg/ml vancomycin (positive control), or 1% DMSO (negative control) at 25° C. for 5 days. Data are representative of three independent experiments. (B) Chemical structures of synthetic retinoids. (C) Growth of MRSA strain MW2 exposed to the indicated concentrations of compounds was quantified by measuring OD600 after 18 h in tryptic soy broth (TSB). (D) C. elegans infected with MRSA strain MW2 was treated with indicated concentrations of compounds. Percent survival of C. elegans was normalized to C. elegans treated with DMSO. (E-F) MRSA persisters prepared as described in Methods were treated with the indicated concentrations of each retinoid. Viability was measured by serial dilution and plating on TSA plates. The data points on the x-axis are below the level of detection (2×10^2 CFU/ml). (E,F) Results are shown as means±s.d.; n=3.

[8] = system: E. faecalis; experiment: MIC, broth microdilution; assay type: cell-based, Enterococcus faecalis; details: result in words
Method: To test the bacterial MICs for compounds described herein, the total volume in each well was 100 μl of test compounds and bacterial cells in MH broth. Two-fold serial dilutions were carried out to get compounds in the concentration range 0.0625-64 μg/ml. The bacterial concentration was adjusted to an initial OD600 of 0.03. After incubation at 35° C. for 18 hrs, the absorbance was measured at 595 nm in accordance with CLSI document M07-A8. The MICs of antibiotics were determined by the standard microdilution method recommended by the Clinical and Laboratory Standards Institute.

Question: With `Cc1onc(-c2ccccc2)c1C(=O)N[C@@H]1C(=O)N2[C@@H]1SC(C)(C)[C@@H]2C(=O)O` [Oxacillin] as the compound, how does the MIC [1] read?
Answer: The MIC was over 64 µg/mL.

Question: What about the MIC ([2]; E. faecium C68, read-out: Minimum inhibitory concentration) of the same compound?
Answer: The MIC was over 64 µg/mL.

Question: And the MIC ([2]; E. faecium D14, read-out: Minimum inhibitory concentration)?
Answer: Its MIC is over 64 µg/mL.

Question: What about the MIC ([2]; E. faecium D24, read-out: Minimum inhibitory concentration) of the same compound?
Answer: Its MIC is over 64 µg/mL.

Question: What about the MIC ([2]; E. faecium D25, read-out: Minimum inhibitory concentration) of the same compound?
Answer: The MIC was over 64 µg/mL.

Question: And the MIC ([2]; E. faecium D29, read-out: Minimum inhibitory concentration)?
Answer: Its MIC is over 64 µg/mL.

Question: What about the MIC ([2]; E. faecium E007, read-out: Minimum inhibitory concentration) of the same compound?
Answer: Its MIC is over 64 µg/mL.

Question: And the MIC ([2]; E. faecium WB213, read-out: Minimum inhibitory concentration)?
Answer: Its MIC is over 64 µg/mL.

Question: What about the MIC ([2]; E. faecium WC176, read-out: Minimum inhibitory concentration) of the same compound?
Answer: Its MIC is over 64 µg/mL.

Question: What about the MIC ([2]; Enterococcus faecium clinical isolate C68 (Table 6), read-out: Drug MIC) of the same compound?
Answer: The MIC was over 64 µg/mL.

Question: And the MIC ([2]; Enterococcus faecium clinical isolate D14 (Table 6), read-out: Drug MIC)?
Answer: Its MIC is 2 µg/mL (≈ 4.98 µM).

Question: What about the MIC ([2]; Enterococcus faecium clinical isolate D24 (Table 6), read-out: Drug MIC) of the same compound?
Answer: The MIC was 1 µg/mL (≈ 2.49 µM).

Question: What about the MIC ([2]; Enterococcus faecium clinical isolate D25 (Table 6), read-out: Drug MIC) of the same compound?
Answer: The MIC was 1 µg/mL (≈ 2.49 µM).

Question: And the MIC ([2]; Enterococcus faecium clinical isolate D29 (Table 6), read-out: Drug MIC)?
Answer: Its MIC is 2 µg/mL (≈ 4.98 µM).

Question: What about the MIC ([2]; Enterococcus faecium clinical isolate W312 (Table 6), read-out: Drug MIC) of the same compound?
Answer: Its MIC is over 64 µg/mL.

Question: What about the MIC ([2]; Enterococcus faecium clinical isolate WC176 (Table 6), read-out: Drug MIC) of the same compound?
Answer: Its MIC is over 64 µg/mL.

Question: What about the MIC ([3]; S. aureus BF1, read-out: Minimum inhibitory concentration) of the same compound?
Answer: Its MIC is over 64 µg/mL.

Question: What about the MIC ([3]; S. aureus BF2, read-out: Minimum inhibitory concentration) of the same compound?
Answer: Its MIC is over 64 µg/mL.

Question: What about the MIC ([3]; S. aureus BF3, read-out: Minimum inhibitory concentration) of the same compound?
Answer: Its MIC is 32 µg/mL (≈ 79.7 µM).

Question: And the MIC ([3]; S. aureus BF4, read-out: Minimum inhibitory concentration)?
Answer: The MIC was 16 µg/mL (≈ 39.9 µM).

Question: And the MIC ([3]; S. aureus BF5, read-out: Minimum inhibitory concentration)?
Answer: The MIC was over 64 µg/mL.

Question: And the MIC ([3]; S. aureus BF6, read-out: Minimum inhibitory concentration)?
Answer: The MIC was 1 µg/mL (≈ 2.49 µM).

Question: What about the MIC ([3]; S. aureus BF7, read-out: Minimum inhibitory concentration) of the same compound?
Answer: Its MIC is over 64 µg/mL.

Question: What about the MIC ([3]; S. aureus BF8, read-out: Minimum inhibitory concentration) of the same compound?
Answer: The MIC was over 64 µg/mL.

Question: And the MIC ([3]; S. aureus BF9, read-out: Minimum inhibitory concentration)?
Answer: Its MIC is 0.25 µg/mL (≈ 0.623 µM).

Question: What about the MIC ([3]; S. aureus BF10, read-out: Minimum inhibitory concentration) of the same compound?
Answer: The MIC was over 64 µg/mL.

Question: What about the MIC ([3]; S. aureus BF11, read-out: Minimum inhibitory concentration) of the same compound?
Answer: Its MIC is over 64 µg/mL.

Question: And the MIC ([3]; S. aureus MW2, read-out: Minimum inhibitory concentration)?
Answer: The MIC was 64 µg/mL (≈ 159 µM).

Question: What about the MIC ([3]; S. aureus VRS1, read-out: Minimum inhibitory concentration) of the same compound?
Answer: Its MIC is over 64 µg/mL.

Question: What about the MIC ([3]; Staphylococcus aureus clinical isolate BF1 (Table 5), read-out: Drug MIC) of the same compound?
Answer: The MIC was over 64 µg/mL.

Question: And the MIC ([3]; Staphylococcus aureus clinical isolate BF2 (Table 5), read-out: Drug MIC)?
Answer: The MIC was over 64 µg/mL.

Question: What about the MIC ([3]; Staphylococcus aureus clinical isolate BF3 (Table 5), read-out: Drug MIC) of the same compound?
Answer: Its MIC is 32 µg/mL (≈ 79.7 µM).

Question: What about the MIC ([3]; Staphylococcus aureus clinical isolate BF4 (Table 5), read-out: Drug MIC) of the same compound?
Answer: Its MIC is 16 µg/mL (≈ 39.9 µM).

Question: What about the MIC ([3]; Staphylococcus aureus clinical isolate BF5 (Table 5), read-out: Drug MIC) of the same compound?
Answer: Its MIC is over 64 µg/mL.

Question: What about the MIC ([3]; Staphylococcus aureus clinical isolate BF6 (Table 5), read-out: Drug MIC) of the same compound?
Answer: The MIC was 1 µg/mL (≈ 2.49 µM).

Question: And the MIC ([3]; Staphylococcus aureus clinical isolate BF7 (Table 5), read-out: Drug MIC)?
Answer: Its MIC is over 64 µg/mL.

Question: What about the MIC ([3]; Staphylococcus aureus clinical isolate BF8 (Table 5), read-out: Drug MIC) of the same compound?
Answer: The MIC was over 64 µg/mL.

Question: And the MIC ([3]; Staphylococcus aureus clinical isolate BF9 (Table 5), read-out: Drug MIC)?
Answer: Its MIC is 0.25 µg/mL (≈ 0.623 µM).

Question: And the MIC ([3]; Staphylococcus aureus clinical isolate BF10 (Table 5), read-out: Drug MIC)?
Answer: The MIC was over 64 µg/mL.

Question: And the MIC ([3]; Staphylococcus aureus clinical isolate BF11 (Table 5), read-out: Drug MIC)?
Answer: The MIC was over 64 µg/mL.

Question: And the MIC [4]?
Answer: The MIC was over 64 µg/mL.

Question: What about the MIC [5] of the same compound?
Answer: The MIC was over 64 µg/mL.

Question: And the MIC [6]?
Answer: The MIC was over 64 µg/mL.

Question: For `COc1ccc(-c2ccc3cc(C(=O)O)ccc3c2)cc1C12CC3CC(CC(C3)C1)C2` [Adapalene, 6-(4-methoxy-3-tricyclo[3.3.1.13,7]dec-1-ylphenyl)-2-naphthalenecarboxylic acid], which “susceptibility of E. faecium” value ([2]; result in words) is on record?
Answer: Its value is “not inhibited”.

Question: What about the “rescue of C. elegans from MRSA infection” value [7] of the same compound?
Answer: Its value is “nor did it protect”.

Question: What about the “susceptibility of E. faecalis” value [8] of the same compound?
Answer: Its value is “not inhibited”.

Question: And the “direct inhibition of MRSA growth” value ([3]; MRSA MW2, result in words)?
Answer: The value was “did not inhibit; also recorded: did not have significant antimicrobial activity”.
